Results reported in patent US20250179083A1, “TRICYCLIC TRIAZOLO COMPOUNDS AS DGK INHIBITORS” (Incyte Corporation, priority 2023, published 2025).
pIC50: −log10 of the molar value.

How the values were obtained:
[1] = target: T1, DGKα (Homo sapiens, UniProt P23743); assay: In vitro DGKα inhibition assay (ADP-Glo); assay type: biochemical; details: His-tagged human recombinant DGKα 0.1 nM, 50 μM ATP, 20 μM DLG, 90 minute incubation
T1 construct: His; purchased Signal Chem D21-10BH
Description: (§1) The DGKα and DGKζ biochemical reactions were performed using His-tagged human recombinant enzymes (Signal Chem, DGKα, #D21-10BH; DGKζ, #D30-10H)) and DLG (Dilauroyl-sn-glycerol) lipid substrate (Signal Chem, #D430-59). ADP-Glo assay was performed using ADP-Glo™ kinase Assay kit (Promega, #V9104). The reactions were carried out in assay buffer containing 40 mM Tris, pH 7.5, 0.1% CHAPS, 0.1% Prionex, 40 mM NaCl, 5 mM MgCl2, 1 mM CaCl2, and 1 mM DTT. DGKα reactions contained 0.1 nM DGKα, 50 μM ATP, and 20 μM DLG. And DGKζ reactions contained 0.4 nM DGKζ, 30 μM ATP, and 20 μM DLG.
(§2) Compounds were added with top concentration of 2 mM with 11 point, 3-fold dilution series. Enzyme solution (contains 2×DGK enzyme concentration in 1× assay buffer) was added to the plate in 2 μL/well volume, followed by 2 μL/well of substrate solution (contains 2× concentration of ATP and DLG substrate in 1× assay buffer). Plates were then centrifuged for 1 min at 1200 RPM and sealed or lidded. For 4 μL reaction volume, test compounds were therefore diluted 100× to final top concentration of 20 μM. After 90 minute incubation, reactions were quenched by addition of 2 μL/well Promega ADP-Glo Reagent, followed by centrifugation and lidding. After 60 min incubation, 2 μL/well Promega Kinase Detection Reagent was added, plates centrifuged, and incubated for 30 min. Plates were then read using Luminescence method on BMG PHERAstar FSX plate reader. Percent inhibition was calculated and IC50s were determined using 4-parameter fit in Genedata Screener. Labcyte Echo acoustic dispenser was used for compound addition, and Formulatrix Tempest liquid handler was used for all reagent dispenses.

[2] = target: T2, DGKζ (Homo sapiens, UniProt Q13574); assay: In vitro DGKζ inhibition assay (ADP-Glo); assay type: biochemical; details: His-tagged human recombinant DGKζ 0.4 nM, 30 μM ATP, 20 μM DLG, 90 minute incubation
T2 construct: His; purchased Signal Chem D30-10H
Description: as §1, §2

T2 sequence (Q13574 whole entry): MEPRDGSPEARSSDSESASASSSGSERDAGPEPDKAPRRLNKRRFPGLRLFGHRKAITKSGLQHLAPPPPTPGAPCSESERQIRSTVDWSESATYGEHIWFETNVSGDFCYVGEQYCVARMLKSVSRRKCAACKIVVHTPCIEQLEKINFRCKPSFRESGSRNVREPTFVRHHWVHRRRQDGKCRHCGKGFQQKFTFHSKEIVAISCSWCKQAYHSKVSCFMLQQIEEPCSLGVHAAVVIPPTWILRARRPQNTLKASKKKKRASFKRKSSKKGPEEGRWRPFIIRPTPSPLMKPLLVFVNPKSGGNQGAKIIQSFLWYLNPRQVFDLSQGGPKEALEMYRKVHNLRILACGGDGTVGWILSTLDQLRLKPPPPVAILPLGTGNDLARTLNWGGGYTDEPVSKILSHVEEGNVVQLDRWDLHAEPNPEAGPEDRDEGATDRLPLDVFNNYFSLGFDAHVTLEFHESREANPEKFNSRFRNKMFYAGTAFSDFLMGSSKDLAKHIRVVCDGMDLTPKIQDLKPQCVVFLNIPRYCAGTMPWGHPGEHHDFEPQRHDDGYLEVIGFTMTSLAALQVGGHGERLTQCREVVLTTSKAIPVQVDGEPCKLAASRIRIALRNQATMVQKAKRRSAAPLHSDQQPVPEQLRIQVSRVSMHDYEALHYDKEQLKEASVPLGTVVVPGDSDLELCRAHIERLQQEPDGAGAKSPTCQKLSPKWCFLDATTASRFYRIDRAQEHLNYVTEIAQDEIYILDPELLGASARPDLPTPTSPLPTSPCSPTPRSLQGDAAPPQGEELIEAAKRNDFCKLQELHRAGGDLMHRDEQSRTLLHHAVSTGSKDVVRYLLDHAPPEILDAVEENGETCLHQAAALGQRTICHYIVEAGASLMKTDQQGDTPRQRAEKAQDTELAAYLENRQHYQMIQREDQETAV
T1 sequence (P23743 whole entry): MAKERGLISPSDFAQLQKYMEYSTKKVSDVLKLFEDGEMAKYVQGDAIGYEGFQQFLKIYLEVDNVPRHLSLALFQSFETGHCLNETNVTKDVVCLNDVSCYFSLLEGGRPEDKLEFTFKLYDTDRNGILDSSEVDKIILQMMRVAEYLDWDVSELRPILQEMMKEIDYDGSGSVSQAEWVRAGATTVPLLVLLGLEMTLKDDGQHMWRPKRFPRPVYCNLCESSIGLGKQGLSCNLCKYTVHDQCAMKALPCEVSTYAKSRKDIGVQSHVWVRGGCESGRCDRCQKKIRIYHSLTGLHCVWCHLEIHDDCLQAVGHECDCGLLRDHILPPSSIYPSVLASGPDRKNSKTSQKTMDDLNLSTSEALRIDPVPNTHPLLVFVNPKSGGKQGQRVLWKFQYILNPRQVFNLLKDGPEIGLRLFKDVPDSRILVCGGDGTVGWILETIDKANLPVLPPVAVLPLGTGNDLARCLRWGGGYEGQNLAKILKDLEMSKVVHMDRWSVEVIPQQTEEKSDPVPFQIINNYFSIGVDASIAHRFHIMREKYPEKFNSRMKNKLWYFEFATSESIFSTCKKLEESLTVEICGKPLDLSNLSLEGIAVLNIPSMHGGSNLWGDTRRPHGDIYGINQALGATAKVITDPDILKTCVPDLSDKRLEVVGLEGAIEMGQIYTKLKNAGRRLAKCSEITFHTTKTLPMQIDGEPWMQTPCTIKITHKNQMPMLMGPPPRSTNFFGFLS

pIC50 [1] | pIC50 [2] | Compound
> 7.70 | > 7.70 | C[C@@H]1CN(c2cc3nncn3c3c2ncn3C[C@@H]2CCCO2)[C@@H](C)CN1C(c1ccc(F)cc1)c1ccc(F)cc1 [Example 43, 4-((2S,5R)-4-(Bis(4-fluorophenyl)methyl)-2,5-dimethylpiperazin-1-yl)-1-(((S)-tetrahydrofuran-2-yl)methyl)-1H-imidazo[4,5-e][1,2,4]triazolo[4,3-a]pyridine]
> 7.70 | > 7.70 | C[C@@H]1CN(c2nc3nncn3c3c2ncn3CC2(O)CCCC2)[C@@H](C)CN1C(c1ccc(Cl)cc1)c1ccc(Cl)cc1 [Example 44, 1-((4-((2S,5R)-4-(Bis(4-chlorophenyl)methyl)-2,5-dimethylpiperazin-1-yl)-1H-[1,2,4]triazolo[3,4-b]purin-1-yl)methyl)cyclopentan-1-ol]
> 7.70 | > 7.70 | C[C@@H]1CN(c2nc3nncn3c3c2ncn3CC2(O)CCCC2)[C@@H](C)CN1C(c1ccc(Cl)cc1)C1CC(F)(F)C1 (stereo partly drawn) [Example 45, 1-((4-((2S,5R)-4-((4-Chlorophenyl)(3,3-difluorocyclobutyl)methyl)-2,5-dimethylpiperazin-1-yl)-1H-[1,2,4]triazolo[3,4-b]purin-1-yl)methyl)cyclopentan-1-ol]
> 7.70 | > 7.70 | C[C@@H]1CN(c2nc3nncn3c3c2ncn3CC2(O)CCCC2)[C@@H](C)CN1C(c1ccc(C(F)(F)F)cc1)C1CC(F)(F)C1 (stereo partly drawn) [Example 46, 1-((4-((2S,5R)-4-((3,3-Difluorocyclobutyl)(4-(trifluoromethyl)phenyl)methyl)-2,5-dimethylpiperazin-1-yl)-1H-[1,2,4]triazolo[3,4-b]purin-1-yl)methyl)cyclopentan-1-ol]
> 7.70 | > 7.70 | C[C@@H]1CN(c2nc3nncn3c3c2ncn3C[C@@H]2CCCO2)[C@@H](C)CN1Cc1ccc(Cl)cc1 [Example 47, 4-((2S,5R)-4-(4-Chlorobenzyl)-2,5-dimethylpiperazin-1-yl)-1-(((S)-tetrahydrofuran-2-yl)methyl)-1H-[1,2,4]triazolo[3,4-b]purine]
> 7.70 | > 7.70 | C[C@@H]1CN(c2nc3nncn3c3c2ncn3C[C@@H]2CCCO2)[C@@H](C)CN1Cc1ccc(Cl)cc1F [Example 48, 4-((2S,5R)-4-(4-Chloro-2-fluorobenzyl)-2,5-dimethylpiperazin-1-yl)-1-(((S)-tetrahydrofuran-2-yl)methyl)-1H-[1,2,4]triazolo[3,4-b]purine]
> 7.70 | > 7.70 | Cc1nc2c(N3C[C@@H](C)N(C(c4ccc(Cl)cc4)C4CC4)C[C@@H]3C)nc3nncn3c2n1C[C@@H]1CCCO1 (stereo partly drawn) [Example 54, 4-((2S,5R)-4-((4-Chlorophenyl)(cyclopropyl)methyl)-2,5-dimethylpiperazin-1-yl)-2-methyl-1-(((S)-tetrahydrofuran-2-yl)methyl)-1H-[1,2,4]triazolo[3,4-b]purine]
> 7.70 | 6.70 to 7.70 | CC[C@@H](c1ccc(Cl)cc1)N1C[C@H](C)N(c2nc3nncn3c3c2ncn3C[C@@H]2CCCO2)C[C@H]1C [Example 57, 4-((2S,5R)-4-((S)-1-(4-Chlorophenyl)propyl)-2,5-dimethylpiperazin-1-yl)-1-(((S)-tetrahydrofuran-2-yl)methyl)-1H-[1,2,4]triazolo[3,4-b]purine]
> 7.70 | > 7.70 | CC[C@H](c1ccc(Cl)cc1)N1C[C@H](C)N(c2nc3nncn3c3c2ncn3C[C@@H]2CCCO2)C[C@H]1C [Example 58, 4-((2S,5R)-4-((R)-1-(4-chlorophenyl)propyl)-2,5-dimethylpiperazin-1-yl)-1-(((S)-tetrahydrofuran-2-yl)methyl)-1H-[1,2,4]triazolo[3,4-b]purine]
> 7.70 | > 7.70 | CC[C@@H](c1ccc(C(F)(F)F)cc1)N1C[C@H](C)N(c2nc3nncn3c3c2ncn3C[C@@H]2CCCO2)C[C@H]1C [Example 59, 4-((2S,5R)-2,5-Dimethyl-4-((S)-1-(4-(trifluoromethyl)phenyl)propyl)piperazin-1-yl)-1-(((S)-tetrahydrofuran-2-yl)methyl)-1H-[1,2,4]triazolo[3,4-b]purine]
